# Reference: PubChem BioAssay (NCI)
#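 GI50 is the concentration that inhibits growth by half. TGI: concentration producing complete growth inhibition.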
# Assays:
# Assay in all cases: NCI anticancer screen, dose series, 384-well format
# M14 melanoma = tested on: M14 melanoma
# SK-OV-3 ovarian = tested on: SK-OV-3 ovarian
# SR leukemia = tested on: SR leukemia
# U251 glioblastoma = tested on: U251 glioblastoma
# SK-MEL-2 melanoma = tested on: SK-MEL-2 melanoma
# NCI-H460 NSCLC = tested on: NCI-H460 NSCLC
# T-47D breast = tested on: T-47D breast
# RXF 393 renal = tested on: RXF 393 renal
# UACC-62 melanoma = tested on: UACC-62 melanoma
# CCRF-CEM leukemia = tested on: CCRF-CEM leukemia
# HS 578T breast = tested on: HS 578T breast
# MOLT-4 leukemia = tested on: MOLT-4 leukemia
# SF-539 CNS = tested on: SF-539 CNS
# IGROV1 ovarian = tested on: IGROV1 ovarian
# SNB-19 CNS = tested on: SNB-19 CNS
# SK-MEL-5 melanoma = tested on: SK-MEL-5 melanoma
# DU-145 prostate = tested on: DU-145 prostate
# ACHN renal = tested on: ACHN renal
# SNB-75 CNS = tested on: SNB-75 CNS
# PC-3 prostate = tested on: PC-3 prostate
# MDA-MB-231 breast = tested on: MDA-MB-231 breast
# SF-295 CNS = tested on: SF-295 CNS
# HCT-15 colon = tested on: HCT-15 colon
# NCI-H23 lung = tested on: NCI-H23 lung
# HOP-92 NSCLC = tested on: HOP-92 NSCLC
# NCI/ADR-RES ovarian = tested on: NCI/ADR-RES ovarian
# TK-10 renal = tested on: TK-10 renal
# BT-549 breast = tested on: BT-549 breast
# HL-60(TB) leukemia = tested on: HL-60(TB) leukemia
# OVCAR-4 ovarian = tested on: OVCAR-4 ovarian
# COLO 205 colon = tested on: COLO 205 colon
# RPMI-8226 leukemia = tested on: RPMI-8226 leukemia
# OVCAR-3 ovarian = tested on: OVCAR-3 ovarian
# NCI-H522 lung = tested on: NCI-H522 lung
# K-562 leukemia = tested on: K-562 leukemia
# SF-268 CNS = tested on: SF-268 CNS
# OVCAR-5 ovarian = tested on: OVCAR-5 ovarian
# HCT-116 colon = tested on: HCT-116 colon
# NCI-H226 lung = tested on: NCI-H226 lung
# CAKI-1 renal = tested on: CAKI-1 renal
# KM12 colon = tested on: KM12 colon
# A498 renal = tested on: A498 renal
# A549 NSCLC = tested on: A549 NSCLC
# MDA-MB-435 melanoma = tested on: MDA-MB-435 melanoma
# UO-31 renal = tested on: UO-31 renal
# NCI-H322M lung = tested on: NCI-H322M lung
# SN12C renal = tested on: SN12C renal
smiles,measurement,setting,value
O=C(c1ccccc1O)c1[nH]c(Cl)c(Cl)c1-n1c(C(=O)c2ccccc2O)cc(Cl)c1Cl,GI50,M14 melanoma,682 nM
same,TGI,M14 melanoma,2380 nM
same,GI50,SK-OV-3 ovarian,641 nM
same,TGI,SK-OV-3 ovarian,2210 nM
same,GI50,SR leukemia,340 nM
same,TGI,SR leukemia,1100 nM
same,GI50,U251 glioblastoma,331 nM
same,TGI,U251 glioblastoma,1130 nM
same,GI50,SK-MEL-2 melanoma,333 nM
same,TGI,SK-MEL-2 melanoma,922 nM
same,GI50,NCI-H460 NSCLC,288 nM
same,TGI,NCI-H460 NSCLC,938 nM
same,GI50,T-47D breast,218 nM
same,TGI,T-47D breast,883 nM
same,GI50,RXF 393 renal,600 nM
same,TGI,RXF 393 renal,2120 nM
same,GI50,UACC-62 melanoma,599 nM
same,TGI,UACC-62 melanoma,1860 nM
same,GI50,CCRF-CEM leukemia,240 nM
same,TGI,CCRF-CEM leukemia,705 nM
same,GI50,HS 578T breast,157 nM
same,TGI,HS 578T breast,440 nM
same,GI50,MOLT-4 leukemia,301 nM
same,TGI,MOLT-4 leukemia,768 nM
same,GI50,SF-539 CNS,537 nM
same,TGI,SF-539 CNS,1630 nM
same,GI50,IGROV1 ovarian,521 nM
same,TGI,IGROV1 ovarian,8560 nM
same,GI50,SNB-19 CNS,373 nM
same,TGI,SNB-19 CNS,3960 nM
same,GI50,SK-MEL-5 melanoma,417 nM
same,TGI,SK-MEL-5 melanoma,913 nM
same,GI50,DU-145 prostate,681 nM
same,TGI,DU-145 prostate,8400 nM
same,GI50,ACHN renal,649 nM
same,TGI,ACHN renal,2780 nM
same,GI50,SNB-75 CNS,487 nM
same,TGI,SNB-75 CNS,2440 nM
same,GI50,PC-3 prostate,292 nM
same,TGI,PC-3 prostate,978 nM
same,GI50,MDA-MB-231 breast,424 nM
same,TGI,MDA-MB-231 breast,1450 nM
same,GI50,SF-295 CNS,448 nM
same,TGI,SF-295 CNS,1300 nM
same,GI50,HCT-15 colon,277 nM
same,TGI,HCT-15 colon,1040 nM
same,GI50,NCI-H23 lung,220 nM
same,TGI,NCI-H23 lung,610 nM
same,GI50,HOP-92 NSCLC,458 nM
same,TGI,HOP-92 NSCLC,1160 nM
same,GI50,NCI/ADR-RES ovarian,384 nM
same,TGI,NCI/ADR-RES ovarian,1270 nM
same,GI50,TK-10 renal,386 nM
same,TGI,TK-10 renal,4500 nM
same,GI50,BT-549 breast,631 nM
same,TGI,BT-549 breast,1620 nM
same,GI50,HL-60(TB) leukemia,257 nM
same,TGI,HL-60(TB) leukemia,572 nM
same,GI50,OVCAR-4 ovarian,936 nM
same,TGI,OVCAR-4 ovarian,4790 nM
same,GI50,COLO 205 colon,747 nM
same,TGI,COLO 205 colon,3800 nM
same,GI50,RPMI-8226 leukemia,196 nM
same,TGI,RPMI-8226 leukemia,388 nM
same,GI50,OVCAR-3 ovarian,353 nM
same,TGI,OVCAR-3 ovarian,1500 nM
same,GI50,NCI-H522 lung,174 nM
same,TGI,NCI-H522 lung,536 nM
same,GI50,K-562 leukemia,238 nM
same,TGI,K-562 leukemia,3070 nM
same,GI50,SF-268 CNS,116 nM
same,TGI,SF-268 CNS,871 nM
same,GI50,OVCAR-5 ovarian,1440 nM
same,TGI,OVCAR-5 ovarian,4710 nM
same,GI50,HCT-116 colon,248 nM
same,TGI,HCT-116 colon,930 nM
same,GI50,NCI-H226 lung,634 nM
same,TGI,NCI-H226 lung,1890 nM
same,GI50,CAKI-1 renal,411 nM
same,TGI,CAKI-1 renal,2190 nM
same,GI50,KM12 colon,537 nM
same,TGI,KM12 colon,1930 nM
same,GI50,A498 renal,399 nM
same,TGI,A498 renal,1760 nM
same,GI50,A549 NSCLC,654 nM
same,TGI,A549 NSCLC,2480 nM
same,GI50,MDA-MB-435 melanoma,801 nM
same,TGI,MDA-MB-435 melanoma,3050 nM
same,GI50,UO-31 renal,493 nM
same,TGI,UO-31 renal,1820 nM
same,GI50,NCI-H322M lung,302 nM
same,TGI,NCI-H322M lung,1020 nM
same,GI50,SN12C renal,209 nM
same,TGI,SN12C renal,746 nM
